Laboratory results from ChEMBL document CHEMBL1201862, “PubChem BioAssay data set” (2004).
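Exposure lasted 48 hours, with cells grown in 96-well plates and compounds tested at five concentrations. Here, GI50 denotes the concentration required for 50% inhibition of growth.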 Activity calls are given as the source filed them. Cut-off read from the data, not from the text of the source: active = GI50 up to about 1.1 µM and inactive = higher.

Tests used:
Experiment in all cases: NCI anticancer screen, dose series, 48 h
SF-295 = system: SF-295
HOP-92 = system: HOP-92
SK-MEL-2 = system: SK-MEL-2
UACC-257 = system: UACC-257
SK-OV-3 = system: SK-OV-3
HOP-62 = system: HOP-62
NCI-H226 = system: NCI-H226
NCI-H460 = system: NCI-H460
786-0 = system: 786-0
BT-549 = system: BT-549
LOX IMVI = system: LOX IMVI
HCT-116 = system: HCT-116
SK-MEL-28 = system: SK-MEL-28
CAKI-1 = system: CAKI-1
T47D = system: T47D
IGROV-1 = system: IGROV-1
HT-29 = system: HT-29
CCRF-CEM = system: CCRF-CEM
UACC-62 = system: UACC-62
SF-268 = system: SF-268
OVCAR-4 = system: OVCAR-4
NCI-H522 = system: NCI-H522
SW-620 = system: SW-620
OVCAR-5 = system: OVCAR-5
HCC 2998 = system: HCC 2998
RPMI-8226 = system: RPMI-8226
TK-10 = system: TK-10
RXF 393 = system: RXF 393
KM12 = system: KM12
Malme-3M = system: Malme-3M
SR = system: SR
U-251 = system: U-251
Hs-578T = system: Hs-578T
SN12C = system: SN12C
MDA-N = system: MDA-N
COLO 205 = system: COLO 205
DU-145 = system: DU-145
A549 = system: A549
OVCAR-3 = system: OVCAR-3
PC-3 = system: PC-3
A498 = system: A498
ACHN = system: ACHN
EKVX = system: EKVX
UO-31 = system: UO-31
SF-539 = system: SF-539
SNB-75 = system: SNB-75
MOLT-4 = system: MOLT-4
NCI/ADR-RES = system: NCI/ADR-RES
SNB-19 = system: SNB-19
OVCAR-8 = system: OVCAR-8
SK-MEL-5 = system: SK-MEL-5
K562 = system: K562
MDA-MB-231 = system: MDA-MB-231
MCF7 = system: MCF7
HCT-15 = system: HCT-15
MDA-MB-435 = system: MDA-MB-435
NCI-H23 = system: NCI-H23
HL-60 = system: HL-60
M14 = system: M14

For `CCOC(=O)/C=C/[C@H](O)[C@@H](O)/C=C/C(=O)OCC`, the GI50 (SF-295) was 31.7 µM (inactive), the GI50 (HOP-92) was 16.8 µM (inactive) and the GI50 (SK-MEL-2) was 30.8 µM (inactive). For the same compound, the GI50 (UACC-257) was 45.8 µM (inactive), the GI50 (SK-OV-3) was 62.2 µM (inactive) and the GI50 (HOP-62) was 21.3 µM (inactive). For the same compound, the GI50 (NCI-H226) was > 100 µM (inactive), the GI50 (NCI-H460) was 19.1 µM (inactive) and the GI50 (786-0) was 33.8 µM (inactive). The GI50 (BT-549) was 35.3 µM (inactive), the GI50 (LOX IMVI) was 23.9 µM (inactive) and the GI50 (HCT-116) was 18.2 µM (inactive). For the same compound, the GI50 (SK-MEL-28) was 18.2 µM (inactive), the GI50 (CAKI-1) was 23.1 µM (inactive) and the GI50 (T47D) was 34.1 µM (inactive). The GI50 (IGROV-1) was 30.7 µM (inactive), the GI50 (HT-29) was 15.4 µM (inactive) and the GI50 (CCRF-CEM) was 8.34 µM (inactive). For the same compound, the GI50 (UACC-62) was 21.3 µM (inactive), the GI50 (SF-268) was 34.2 µM (inactive) and the GI50 (OVCAR-4) was 31.8 µM (inactive). For the same compound, the GI50 (NCI-H522) was 20.7 µM (inactive), the GI50 (SW-620) was 17 µM (inactive) and the GI50 (OVCAR-5) was 51.2 µM (inactive). The GI50 (HCC 2998) was 36.1 µM (inactive), the GI50 (RPMI-8226) was 21.2 µM (inactive) and the GI50 (TK-10) was 55.8 µM (inactive). For the same compound, the GI50 (RXF 393) was 20.2 µM (inactive), the GI50 (KM12) was 18.9 µM (inactive) and the GI50 (Malme-3M) was 21.6 µM (inactive). The GI50 (SR) was 8.04 µM (inactive), the GI50 (U-251) was 31 µM (inactive) and the GI50 (Hs-578T) was 34.8 µM (inactive). The GI50 (SN12C) was 26.6 µM (inactive), the GI50 (MDA-N) was 29.6 µM (inactive) and the GI50 (COLO 205) was 32.4 µM (inactive). For the same compound, the GI50 (DU-145) was 37.4 µM (inactive), the GI50 (A549) was 40.7 µM (inactive) and the GI50 (OVCAR-3) was 20.1 µM (inactive). The GI50 (PC-3) was 23.3 µM (inactive), the GI50 (A498) was 42.7 µM (inactive) and the GI50 (ACHN) was 23.8 µM (inactive). The GI50 (EKVX) was 24.7 µM (inactive), the GI50 (UO-31) was 61.8 µM (inactive) and the GI50 (SF-539) was 33.5 µM (inactive). The GI50 (SNB-75) was 62.7 µM (inactive), the GI50 (MOLT-4) was 14.9 µM (inactive) and the GI50 (NCI/ADR-RES) was 29.9 µM (inactive). The GI50 (SNB-19) was 22 µM (inactive), the GI50 (OVCAR-8) was 19.6 µM (inactive) and the GI50 (SK-MEL-5) was 22.6 µM (inactive). The GI50 (K562) was 10.6 µM (inactive), the GI50 (MDA-MB-231) was 41.3 µM (inactive) and the GI50 (MCF7) was 19.6 µM (inactive). The GI50 (HCT-15) was 23 µM, the GI50 (MDA-MB-435) was 29.9 µM (inactive) and the GI50 (NCI-H23) was 33.8 µM (inactive).
`Cn1c(S)nc(C(N)=O)c1N` was tested, and the GI50 (SF-295) was > 100 µM (inactive), the GI50 (SK-MEL-2) was > 100 µM (inactive) and the GI50 (SK-OV-3) was > 100 µM (inactive). The GI50 (HOP-62) was > 100 µM (inactive), the GI50 (NCI-H226) was > 100 µM (inactive) and the GI50 (NCI-H460) was > 100 µM (inactive). The GI50 (786-0) was > 100 µM (inactive), the GI50 (BT-549) was > 100 µM (inactive) and the GI50 (LOX IMVI) was > 100 µM (inactive). For the same compound, the GI50 (SK-MEL-28) was > 100 µM (inactive), the GI50 (T47D) was 72.4 µM (inactive) and the GI50 (IGROV-1) was > 100 µM (inactive). For the same compound, the GI50 (HT-29) was > 100 µM (inactive), the GI50 (CCRF-CEM) was > 100 µM (inactive) and the GI50 (UACC-62) was > 100 µM (inactive). The GI50 (SF-268) was > 100 µM (inactive), the GI50 (OVCAR-4) was > 100 µM (inactive) and the GI50 (HL-60) was > 100 µM (inactive). For the same compound, the GI50 (NCI-H522) was > 100 µM (inactive), the GI50 (SW-620) was > 100 µM (inactive) and the GI50 (OVCAR-5) was > 100 µM (inactive). For the same compound, the GI50 (HCC 2998) was > 100 µM (inactive), the GI50 (RPMI-8226) was > 100 µM (inactive) and the GI50 (TK-10) was > 100 µM (inactive). For the same compound, the GI50 (RXF 393) was > 100 µM (inactive), the GI50 (KM12) was > 100 µM (inactive) and the GI50 (Malme-3M) was > 100 µM (inactive). The GI50 (SR) was > 100 µM (inactive), the GI50 (U-251) was > 100 µM (inactive) and the GI50 (Hs-578T) was > 100 µM (inactive). For the same compound, the GI50 (SN12C) was > 100 µM (inactive), the GI50 (MDA-N) was > 100 µM (inactive) and the GI50 (COLO 205) was > 100 µM (inactive). The GI50 (DU-145) was > 100 µM (inactive), the GI50 (A549) was > 100 µM (inactive) and the GI50 (OVCAR-3) was > 100 µM (inactive). The GI50 (M14) was > 100 µM (inactive), the GI50 (PC-3) was > 100 µM (inactive) and the GI50 (A498) was > 100 µM (inactive). The GI50 (ACHN) was > 100 µM (inactive), the GI50 (EKVX) was > 100 µM (inactive) and the GI50 (UO-31) was > 100 µM (inactive). For the same compound, the GI50 (SF-539) was > 100 µM (inactive), the GI50 (SNB-75) was > 100 µM (inactive) and the GI50 (MOLT-4) was > 100 µM (inactive). The GI50 (NCI/ADR-RES) was > 100 µM (inactive), the GI50 (SNB-19) was > 100 µM (inactive) and the GI50 (OVCAR-8) was > 100 µM (inactive). The GI50 (SK-MEL-5) was > 100 µM (inactive), the GI50 (K562) was > 100 µM (inactive) and the GI50 (MDA-MB-231) was > 100 µM (inactive). The GI50 (MCF7) was > 100 µM (inactive), the GI50 (HCT-15) was over 100 µM and the GI50 (MDA-MB-435) was > 100 µM (inactive). The GI50 (NCI-H23) was > 100 µM (inactive).
In the case of `CCC(=O)Nc1ncnc2ncn(C(=O)CC)c12`, the GI50 (SF-295) is reported as > 100 µM (inactive), the GI50 (HOP-92) is reported as > 100 µM (inactive) and the GI50 (SK-MEL-2) is reported as > 100 µM (inactive). The GI50 (UACC-257) was > 100 µM (inactive), the GI50 (SK-OV-3) was > 100 µM (inactive) and the GI50 (HOP-62) was > 100 µM (inactive). For the same compound, the GI50 (NCI-H460) was > 100 µM (inactive), the GI50 (786-0) was > 100 µM (inactive) and the GI50 (BT-549) was > 100 µM (inactive). The GI50 (LOX IMVI) was > 100 µM (inactive), the GI50 (HCT-116) was > 100 µM (inactive) and the GI50 (SK-MEL-28) was > 100 µM (inactive). For the same compound, the GI50 (CAKI-1) was > 100 µM (inactive), the GI50 (T47D) was > 100 µM (inactive) and the GI50 (IGROV-1) was > 100 µM (inactive). The GI50 (HT-29) was > 100 µM (inactive), the GI50 (UACC-62) was > 100 µM (inactive) and the GI50 (SF-268) was > 100 µM (inactive). The GI50 (OVCAR-4) was > 100 µM (inactive), the GI50 (NCI-H522) was > 100 µM (inactive) and the GI50 (SW-620) was > 100 µM (inactive). For the same compound, the GI50 (OVCAR-5) was > 100 µM (inactive), the GI50 (HCC 2998) was > 100 µM (inactive) and the GI50 (RPMI-8226) was > 100 µM (inactive). For the same compound, the GI50 (TK-10) was > 100 µM (inactive), the GI50 (RXF 393) was > 100 µM (inactive) and the GI50 (KM12) was > 100 µM (inactive). The GI50 (Malme-3M) was > 100 µM (inactive), the GI50 (SR) was > 100 µM (inactive) and the GI50 (U-251) was > 100 µM (inactive). For the same compound, the GI50 (Hs-578T) was > 100 µM (inactive), the GI50 (SN12C) was > 100 µM (inactive) and the GI50 (MDA-N) was > 100 µM (inactive). The GI50 (DU-145) was > 100 µM (inactive), the GI50 (A549) was > 100 µM (inactive) and the GI50 (OVCAR-3) was > 100 µM (inactive). For the same compound, the GI50 (M14) was > 100 µM (inactive), the GI50 (PC-3) was > 100 µM (inactive) and the GI50 (A498) was > 100 µM (inactive). For the same compound, the GI50 (ACHN) was > 100 µM (inactive), the GI50 (EKVX) was > 100 µM (inactive) and the GI50 (UO-31) was > 100 µM (inactive). The GI50 (SNB-75) was > 100 µM (inactive), the GI50 (MOLT-4) was > 100 µM (inactive) and the GI50 (NCI/ADR-RES) was > 100 µM (inactive). The GI50 (SNB-19) was > 100 µM (inactive), the GI50 (OVCAR-8) was > 100 µM (inactive) and the GI50 (K562) was > 100 µM (inactive). For the same compound, the GI50 (MDA-MB-231) was > 100 µM (inactive), the GI50 (MCF7) was > 100 µM (inactive) and the GI50 (HCT-15) was over 100 µM. For the same compound, the GI50 (MDA-MB-435) was > 100 µM (inactive) and the GI50 (NCI-H23) was > 100 µM (inactive).
